Data taken from ChEMBL document CHEMBL4270508, “1,3,5-Triazines: A promising scaffold for anticancer drugs development” (Eur J Med Chem, 2017).
Values after ≈ are worked out from the molar mass of the structure shown.

Experiments:
[1] = Inhibition of starfish oocytes CDK1/cyclin B using histone H1 and [gamma-33P]ATP incubated fro 30 mins by scintillation counting analysis; parameters: species or system Asteroidea
[2] = molecular target: Cyclin-dependent kinase 5/CDK5 activator 1 (Homo sapiens, UniProt Q00535); experiment: Inhibition of human recombinant CDK5/p25 using histone H1 and [gamma-33P]ATP incubated fro 30 mins by scintillation counting analysis; type: protein-complex assay
[3] = molecular target: Cyclin-dependent kinase 7/ cyclin H (Homo sapiens, UniProt P50613); experiment: Inhibition of human recombinant CDK7/cyclin H using histone H1 and [gamma-33P]ATP incubated fro 30 mins by scintillation counting analysis; type: protein-complex assay
CDK9/cyclin T1 = CDK9/cyclin T1 (Homo sapiens, UniProt P50750); experiment: Inhibition of human recombinant CDK9/cyclin T expressed in insect cells using pRb fragment (773 to 928 amino acids) and [gamma-33P]ATP incubated fro 30 mins by scintillation counting analysis
MCF7 [4] = experiment: Antiproliferative activity in human MCF7 cells assessed as inhibition of cell proliferation; type: functional, cell-based
MDA-MB-231 [5] = experiment: Antiproliferative activity in human MDA-MB-231 cells assessed as inhibition of cell proliferation; type: functional, cell-based
Homo sapiens = species: Homo sapiens; experiment: Inhibition of PI3K in human A549 cell lysates assessed as remaining enzyme activity at 1 uM pre-incubated for 5 mins before [gamma-32P]ATP addition and further incubated for 20 mins by TLC and autoradiography relative to untreated control
[6] = test system: Panel NCI-60 (60 carcinoma cell lines); experiment: Growth inhibition of human NCI60 cells incubated for 48 hrs by SRB assay; type: functional, cell-based
NCI-H460 = experiment: Antiproliferative activity in human NCI-H460 cells incubated for 72 hrs by MTT assay; type: functional, cell-based; conditions: NCI-H460, 72 h
HT-29 [7] = experiment: Anticancer activity against human HT-29 cells incubated for 48 hrs by MTT assay; type: functional, cell-based; conditions: HT-29, 48 h
MCF7 [8] = experiment: Anticancer activity against human MCF7 cells incubated for 48 hrs by MTT assay; type: functional, cell-based; conditions: MCF7, 48 h
MDA-MB-231 [9] = experiment: Anticancer activity against human MDA-MB-231 cells incubated for 48 hrs by MTT assay; type: functional, cell-based; conditions: MDA-MB-231, 48 h
HGC-27 = experiment: Anticancer activity against human HGC27 cells incubated for 48 hrs by MTT assay; type: functional, cell-based; conditions: HGC-27, 48 h
[10] = Inhibition of rhodamine-labeled purified porcine brain tubulin polymerization in presence of GTP incubated for 30 mins by epifluorescence microscopy; parameters: species or system Sus scrofa
[11] = molecular target: Ubiquitin-conjugating enzyme E2 B (Homo sapiens, UniProt P63146); experiment: Inhibition of human recombinant Rad6B using ubiquitin and histone H2A and ubiquitin-activating enzyme E1 preincubated for 1 hr before ubiquitin and histone H2A addition by SDS-PAGE and immunoblotting analysis
SK-BR-3 = experiment: Antiproliferative activity in human SK-BR-3 cells assessed as inhibition of cell proliferation by SRB/MTT assay; type: functional, cell-based
BT-474 = experiment: Antiproliferative activity in human BT474 cells assessed as inhibition of cell proliferation by SRB/MTT assay; type: functional, cell-based
A549 [12] = experiment: Antiproliferative activity in human A549 cells assessed as inhibition of cell proliferation by SRB/MTT assay; type: functional, cell-based
K562 [13] = experiment: Antiproliferative activity in human K562 cells assessed as inhibition of cell proliferation by SRB/MTT assay; type: functional, cell-based
HCT-116 = experiment: Antiproliferative activity in human HCT116 cells assessed as inhibition of cell proliferation by SRB/MTT assay; type: functional, cell-based
HepG2 = experiment: Anticancer activity against human HepG2 cells incubated for 48 hrs by SRB assay; type: functional, cell-based; conditions: HepG2, 48 h
MCF7 [14] = experiment: Anticancer activity against human MCF7 cells incubated for 48 hrs by SRB assay; type: functional, cell-based; conditions: MCF7, 48 h
K562 [15] = experiment: Cytotoxicity in human K562 cells assessed as reduction in cell viability incubated for 72 hrs by MTT assay; type: functional, cell-based; conditions: K562, 72 h
PC-3 = experiment: Cytotoxicity in human PC3 cells assessed as reduction in cell viability incubated for 72 hrs by MTT assay; type: functional, cell-based; conditions: PC-3, 72 h
[16] = Cytotoxicity in human HO8910 cells assessed as reduction in cell viability incubated for 72 hrs by MTT assay; type: functional, cell-based; conditions: HO-8910, 72 h
A549 [17] = experiment: Antiproliferative activity in human A549 cells assessed as inhibition of cell proliferation by MTT assay; type: functional, cell-based
HT-29 [18] = experiment: Antiproliferative activity in human HT-29 cells incubated for 72 hrs by MTT assay; type: functional, cell-based; conditions: HT-29, 72 h
MDA-MB-231 [19] = experiment: Antiproliferative activity in human MDA-MB-231 cells incubated for 72 hrs by MTT assay; type: functional, cell-based; conditions: MDA-MB-231, 72 h

Sequence of CDK9/cyclin T1 (O60563 whole entry, the tested form may be a part): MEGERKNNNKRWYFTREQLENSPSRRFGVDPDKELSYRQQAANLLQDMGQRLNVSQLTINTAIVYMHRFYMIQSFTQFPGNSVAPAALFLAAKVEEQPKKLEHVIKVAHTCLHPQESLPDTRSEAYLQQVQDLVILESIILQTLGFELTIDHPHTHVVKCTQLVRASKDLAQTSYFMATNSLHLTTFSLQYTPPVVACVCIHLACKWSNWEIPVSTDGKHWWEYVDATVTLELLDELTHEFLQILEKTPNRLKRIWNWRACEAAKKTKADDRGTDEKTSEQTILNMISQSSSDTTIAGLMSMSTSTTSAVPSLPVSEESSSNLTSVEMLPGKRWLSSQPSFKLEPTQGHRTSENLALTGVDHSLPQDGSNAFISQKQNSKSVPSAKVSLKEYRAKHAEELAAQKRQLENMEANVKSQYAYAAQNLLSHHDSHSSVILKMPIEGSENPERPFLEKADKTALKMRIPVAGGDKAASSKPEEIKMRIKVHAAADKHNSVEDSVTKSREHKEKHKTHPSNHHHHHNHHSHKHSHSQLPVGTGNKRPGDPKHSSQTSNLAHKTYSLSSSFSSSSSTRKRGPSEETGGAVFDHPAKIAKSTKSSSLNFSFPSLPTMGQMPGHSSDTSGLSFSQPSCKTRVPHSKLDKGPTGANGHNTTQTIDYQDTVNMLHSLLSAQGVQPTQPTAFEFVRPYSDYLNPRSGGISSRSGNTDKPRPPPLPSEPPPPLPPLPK
Sequence of CDK9/cyclin T1 (P50750 whole entry, the tested form may be a part): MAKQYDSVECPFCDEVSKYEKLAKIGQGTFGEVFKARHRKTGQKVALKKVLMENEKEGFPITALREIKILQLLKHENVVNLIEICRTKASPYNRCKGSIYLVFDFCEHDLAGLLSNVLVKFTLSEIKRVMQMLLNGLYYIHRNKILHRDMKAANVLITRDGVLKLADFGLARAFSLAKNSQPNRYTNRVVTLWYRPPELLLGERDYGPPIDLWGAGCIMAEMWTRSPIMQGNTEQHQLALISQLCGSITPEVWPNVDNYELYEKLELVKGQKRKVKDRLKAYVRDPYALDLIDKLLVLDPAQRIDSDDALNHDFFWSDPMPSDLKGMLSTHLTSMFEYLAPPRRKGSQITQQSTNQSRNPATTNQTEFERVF
Sequence of Cyclin-dependent kinase 5/CDK5 activator 1 (Q00535 whole entry): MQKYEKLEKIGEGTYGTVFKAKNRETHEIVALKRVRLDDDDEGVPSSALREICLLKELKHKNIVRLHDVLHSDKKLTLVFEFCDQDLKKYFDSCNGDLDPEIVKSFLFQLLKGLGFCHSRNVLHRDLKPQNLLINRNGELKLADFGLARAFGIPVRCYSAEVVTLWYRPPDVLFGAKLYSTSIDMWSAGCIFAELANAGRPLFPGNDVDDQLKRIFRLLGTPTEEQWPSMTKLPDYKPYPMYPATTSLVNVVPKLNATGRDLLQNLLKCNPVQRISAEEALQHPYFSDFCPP
Sequence of Cyclin-dependent kinase 5/CDK5 activator 1 (Q15078 whole entry, further chain): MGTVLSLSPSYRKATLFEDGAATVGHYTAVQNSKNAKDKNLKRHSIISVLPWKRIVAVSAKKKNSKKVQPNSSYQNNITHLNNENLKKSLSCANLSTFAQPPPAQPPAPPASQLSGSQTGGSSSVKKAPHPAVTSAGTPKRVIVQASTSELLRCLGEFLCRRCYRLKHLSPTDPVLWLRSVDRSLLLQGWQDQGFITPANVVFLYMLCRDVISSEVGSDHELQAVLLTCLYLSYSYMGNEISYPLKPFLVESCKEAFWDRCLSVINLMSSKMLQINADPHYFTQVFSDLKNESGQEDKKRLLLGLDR
Sequence of Cyclin-dependent kinase 7/ cyclin H (P51946 whole entry, the tested form may be a part): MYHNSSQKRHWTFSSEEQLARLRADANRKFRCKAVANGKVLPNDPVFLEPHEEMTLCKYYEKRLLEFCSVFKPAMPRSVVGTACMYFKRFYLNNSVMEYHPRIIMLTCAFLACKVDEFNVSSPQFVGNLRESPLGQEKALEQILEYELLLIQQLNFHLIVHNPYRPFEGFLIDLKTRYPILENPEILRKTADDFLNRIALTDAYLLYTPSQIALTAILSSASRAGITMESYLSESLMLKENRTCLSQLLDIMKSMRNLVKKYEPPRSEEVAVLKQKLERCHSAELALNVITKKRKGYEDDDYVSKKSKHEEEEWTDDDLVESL
Sequence of Cyclin-dependent kinase 7/ cyclin H (P50613 whole entry, the tested form may be a part): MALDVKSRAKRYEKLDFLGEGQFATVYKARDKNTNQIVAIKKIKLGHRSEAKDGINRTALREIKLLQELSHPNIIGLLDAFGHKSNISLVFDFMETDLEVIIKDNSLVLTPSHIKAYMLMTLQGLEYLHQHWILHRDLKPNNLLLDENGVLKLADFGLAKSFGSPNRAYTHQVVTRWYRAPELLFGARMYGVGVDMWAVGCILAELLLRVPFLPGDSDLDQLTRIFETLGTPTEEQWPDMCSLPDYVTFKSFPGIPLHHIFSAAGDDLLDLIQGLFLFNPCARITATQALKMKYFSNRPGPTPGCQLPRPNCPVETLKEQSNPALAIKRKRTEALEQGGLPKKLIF
Sequence of Ubiquitin-conjugating enzyme E2 B (P63146 whole entry): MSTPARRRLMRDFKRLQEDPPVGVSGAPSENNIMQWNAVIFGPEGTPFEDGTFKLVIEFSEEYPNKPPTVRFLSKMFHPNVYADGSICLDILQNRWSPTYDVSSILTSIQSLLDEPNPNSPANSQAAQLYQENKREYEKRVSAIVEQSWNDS

CC[C@H](CO)Nc1nc(NCc2ccccc2)n2ncc(C(C)C)c2n1
IC50 [1]: 0.043 to 0.5 µM
IC50 [2]: 0.043 to 0.5 µM
IC50 [3]: 0.043 to 0.5 µM
IC50 (CDK9/cyclin T1): 0.043 to 0.5 µM

COC(=O)[C@H](C)Nc1nc(OC)nc([N+]23CC[N+](CCCl)(CC2)CC3)n1
IC50 (MCF7 [4]): 7.4 to 136 µM
IC50 (MDA-MB-231 [5]): 40.3 to 112 µM

COC(=O)[C@H](Cc1ccccc1)Nc1nc(OC)nc([N+]23CC[N+](CCCl)(CC2)CC3)n1
IC50 (MCF7 [4]): 7.4 to 136 µM
IC50 (MDA-MB-231 [5]): 40.3 to 112 µM

COc1nc(Nc2ccc(C)cc2)nc([N+]23CC[N+](CCCl)(CC2)CC3)n1
IC50 (MCF7 [4]): 7.4 µM
IC50 (MDA-MB-231 [5]): 40.3 to 112 µM

FC(F)c1nc2ccccc2n1-c1nc(N2CCOCC2)nc(N2CCOCC2)n1
Activity (Homo sapiens): 4.7%

Nc1nc2nc(-c3ccccc3)nc(-c3ccccc3)n2n1
IC50 [6]: 0.49 to 100 µM

COc1nc(NCc2ccccc2)nc([N+]23CC[N+](CCCl)(CC2)CC3)n1
IC50 (MCF7 [4]): 7.4 to 136 µM
IC50 (MDA-MB-231 [5]): 40.3 to 112 µM

O=C(O)CCCc1ccc(N(CCCl)CCCl)cc1 [CHLORAMBUCIL]
IC50 (MCF7 [4]): 29.1 µM

N#Cc1ccc(Cn2cc(/C=N/Nc3nc(N4CCOCC4)nc(N4CCOCC4)n3)c3ccccc32)cc1
IC50 (NCI-H460): 0.05 µM

c1ccc(Nc2nc(Nc3ccc(-c4nc5ccccc5[nH]4)cc3)nc(N3CCOCC3)n2)cc1
IC50 (HT-29 [7]): 4.8 to 15.1 µM
IC50 (MCF7 [8]): 4.8 to 15.1 µM
IC50 (MDA-MB-231 [9]): 4.8 to 15.1 µM
IC50 (HGC-27): 4.8 to 15.1 µM

COc1ccc(CNc2nc(NCc3ccc(OC)cc3)c3ncn(C(C)C)c3n2)cc1 [MYOSEVERIN]
IC50 [10]: 3.6 µM

COC(=O)[C@H](CO)Nc1nc(OC)nc([N+]23CC[N+](CCCl)(CC2)CC3)n1
IC50 (MCF7 [4]): 7.4 to 136 µM
IC50 (MDA-MB-231 [5]): 40.3 to 112 µM

COc1nc(N2CCOCC2)nc([N+]23CC[N+](CCCl)(CC2)CC3)n1
IC50 (MCF7 [4]): 7.4 to 136 µM
IC50 (MDA-MB-231 [5]): 40.3 to 112 µM

COc1nc(Nc2ccccc2)nc([N+]23CC[N+](CCCl)(CC2)CC3)n1
IC50 (MCF7 [4]): 12.3 µM
IC50 (MDA-MB-231 [5]): 40.3 to 112 µM

COc1nc(N2CCCCC2)nc([N+]23CC[N+](CCCl)(CC2)CC3)n1
IC50 (MCF7 [4]): 7.4 to 136 µM
IC50 (MDA-MB-231 [5]): 40.3 to 112 µM

Nc1nc(COC(=O)c2ccc([N+](=O)[O-])cc2)nc(Nc2ccccc2)n1
IC50 [11]: 0.025 µM

Cc1cc(C)n(-c2nc(N/N=C\c3c[nH]c4ccccc34)nc(Nc3ccc(Br)cc3)n2)n1
IC50 (SK-BR-3): 8.9 µM
IC50 (BT-474): 7.1 µM
IC50 (A549 [12]): 7.5 µM
IC50 (K562 [13]): 8.6 µM
IC50 (HCT-116): 6.7 µM

CCCCNc1nc(OC)nc([N+]23CC[N+](CCCl)(CC2)CC3)n1
IC50 (MCF7 [4]): 7.4 to 136 µM
IC50 (MDA-MB-231 [5]): 40.3 to 112 µM

CCCCCCCCCCCCCCCCOC(=O)c1cc(C(=O)OCCCCCCCCCCCCCCCC)cc(-n2cc(-c3nc(-c4cn(-c5cc(C(=O)OCCCCCCCCCCCCCCCC)cc(C(=O)OCCCCCCCCCCCCCCCC)c5)nn4)nc(-c4cn(-c5cc(C(=O)OCCCCCCCCCCCCCCCC)cc(C(=O)OCCCCCCCCCCCCCCCC)c5)nn4)n3)nn2)c1
IC50 (HepG2): 3.7 mg/L (≈ 1.74 µM)
IC50 (MCF7 [14]): 2.95 mg/L (≈ 1.39 µM)

Cc1ccc(Nc2nc(-c3ccccc3)nc(N3CCNCC3)n2)cc1
IC50 (K562 [15]): 1.01 µM
IC50 (PC-3): 2.23 µM
IC50 [16]: 1.06 µM

Cc1cc(=O)n2c(n1)N=C(N)NC2c1ccco1 (configuration not stated)
IC50 (A549 [17]): 6 µM

C=CCc1cc(C)cc(/C=N/NC(=O)Nc2nc(N3CCOCC3)nc(N3CCOCC3)n2)c1O
IC50 (NCI-H460): 0.75 µM
IC50 (HT-29 [18]): 0.34 µM
IC50 (MDA-MB-231 [19]): 0.6 µM

Clc1ccc(Cn2cc(/C=N/Nc3nc(N4CCOCC4)nc(N4CCOCC4)n3)c3ccccc32)cc1Cl
IC50 (NCI-H460): 0.07 µM
